Assays:
[1] = biological target: T1, PD-L1 on CD14+ cells in human whole blood (Homo sapiens, UniProt Q9NZQ7); assay: PD-L1 whole blood internalization assay; assay type: cell-based; conditions: 1 ng/mL interferon γ, CD14+ gated, 24 hour
T1 construct: Cells were gated on CD14+ (BD Biosciences) and PD-L1 expression determined by mean fluorescence intensity; host or cells: CD14+ cells in normal human whole blood, stimulated with human interferon gamma
Method: PD-L1 Whole Blood Internalization Assay
To determine PD-L1 internalization in human whole blood, normal human blood (Biological Specialty Corp, Colmar. PA) was incubated in the presence or absence of a concentration range of test compounds and 1 ng/mL human interferon γ (R&D Systems Inc. Minn. MN) in a 96 well “2 mL Assay Block” (Corning, Corning NY) for 18-20 hours at 37 °C. Blood was then stained with PD-L1 (MIH1, eBioscience; or BD Biosciences San Jose, CA), CD14 (Life Technologies, Carlsbad, CA) for 30 minutes in the dark at room temperature. Whole Blood/red cells were lysed/fixed (lysis buffer BD Biosciences) for 5 minutes at 37 °C in the dark and then centrifuged at 1600 RPM for 5 minutes. Cells were resuspended in Stain Buffer (BD Bioscience, San Jose, CA) and transferred into 96 well round bottom plates (Coming). Cells were gated on CD14+ (BD Biosciences) and PD-L1 expression determined by mean fluorescence intensity (MFI) (BD LSRFortessa® X-20). IC50 determination was performed by fitting the curve of compound percent inhibition versus the log of the compound concentration using the GraphPad Prism 7.0 software.

[2] = test system: PD-L1 (PD-L1 aAPC/CHO-K1 cells, Jurkat-PD-1-NFAT effector cells); assay: Nuclear Factor of Activated T-cells (NFAT) assay; assay type: cell-based; conditions: Cricetulus griseus; PD-L1 aAPC/CHO-K1 + Jurkat-PD-1-NFAT cells, 24 hours
Method: Nuclear Factor of Activated T-cells (NFAT) Assay
PD-L1 aAPC/CHO-K1cells (Promega) were maintained in F-12 medium with addition of 10% FBS, 200 µg/mL Hygromycin B, 250 µg/mL Geneticin (G418). […] The culture media of PD-L1 aAPC/CHO-K1 cells were first replaced with assay medium (RPMI1640 medium with 1% FBS). The PD-L1 aAPC/CHO-K1cells were then added in a white 384-well white clear bottom assay plate (CELLCOAT® Tissue Culture Plates, Greiner Bio-One) at 8000 per well in 10 uL assay medium. […] 5 uL compounds in the assay medium were transferred to the cells with 0.4% DMSO in the final assay at 2 µM. After removing the culture media, 10,000 Jurkat-PD-1-NFAT effector cells in 5 µL assay medium was dispensed into each well. The assay plate was incubated at 37° C., 5% CO2 for 24 hours. […] After 8 minutes incubation at room temperature, luminescence was read at with Pherastar microplate reader (BMG Labtech). The fold of induction (FOI) was calculated based on the ratio of luminescence normalized to the DMSO wells within each assay plate. The maximum percentage of induction was reported based on the ratio between the highest FOI of each compound and the maximum FOI of control compound within each assay plate. Wells with DMSO were served as the negative controls and wells containing control compound with the highest FOI were used as positive controls. EC50 determination was performed by fitting the curve of percent control activity versus the log of the compound concentration using the GraphPad Prism 6.0 software.

[3] = biological target: T2, PD-⅟PD-L1 (recombinant human PD-L1 protein and human PD-1 protein) (Homo sapiens, UniProt Q9NZQ7); assay: Homogeneous Time-Resolved Fluorescence (HTRF) PD-1/PD-L1 binding assay; conditions: 3 nM PD1, 10 nM PD-L1, 25° C., PBS pH 7.4
T2 construct: Recombinant human PD-L1 protein (19-238) with a His-tag at the C-terminus; purchased AcroBiosystems PD1-H5229 (PD-L1); PD1-H5257 (PD-1)
T2 sequence (Q9NZQ7 19-238): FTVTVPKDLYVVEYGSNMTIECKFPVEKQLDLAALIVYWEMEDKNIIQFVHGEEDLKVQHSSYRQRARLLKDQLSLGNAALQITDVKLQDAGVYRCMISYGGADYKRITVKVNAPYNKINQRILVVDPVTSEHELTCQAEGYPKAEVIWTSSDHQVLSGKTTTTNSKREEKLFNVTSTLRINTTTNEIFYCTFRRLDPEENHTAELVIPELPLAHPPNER
Method: Homogeneous Time-Resolved Fluorescence (HTRF) PD-⅟PD-L1 Binding Assay
The assays were conducted in a standard black 384-well polystyrene plate with a final volume of 20 uL. Inhibitors were first serially diluted in DMSO and then added to the plate wells before the addition of other reaction components. The final concentration of DMSO in the assay was 1%. The assays were carried out at 25° C. in the PBS buffer (pH 7.4) with 0.05% Tween-20 and 0.1% BSA. […] PD-L1 and PD-1 proteins were diluted in the assay buffer and 10 uL was added to the plate well. Plates were centrifuged and proteins were preincubated with inhibitors for 40 minutes. The incubation was followed by the addition of 10 uL of HTRF detection buffer supplemented with Europium cryptate-labeled anti-human IgG (PerkinElmer-AD0212) specific for Fc and anti-His antibody conjugated to SureLight®-Allophycocyanin (APC, PerkinElmer-AD0059H). […] Final concentrations in the assay were - 3 nM PD1, 10 nM PD-L1, 1 nM europium anti-human IgG and 20 nM anti-His-Allophycocyanin. IC50 determination was performed by fitting the curve of percent control activity versus the log of the inhibitor concentration using the GraphPad Prism 5.0 software.

[4] = test system: PD-L1 (U2OS/PD-L1 cells, Jurkat-PD-1-SHP cells); assay: Src Homology Region 2 Domain-containing Phosphatase (SHP) assay; assay type: cell-based; conditions: Homo sapiens; U2OS/PD-L1 + Jurkat-PD-1-SHP cells, 2 hours
Method: Example 1B. Src Homology Region 2 Domain-containing Phosphatase (SHP) Assay
U2OS/PD-L1 cells (DiscoveRx Corporation) were maintained in McCoy’s 5A medium with addition of 10% FBS, 0.25 µg/mL Puromycin. After removing the culture media, the cell medium was replaced with assay medium (RPMI1640 medium with 1% FBS). The U2OS/PD-L1 cells were then added in 384-well black clear bottom assay plate (CELLCOAT® Tissue Culture Plates, Greiner Bio-One) at 5000 cells per well in 20 uL assay medium. Test compounds were prepared by serial dilution in DMSO and 125 nL compound were first transferred to the 384 REMP plate well (Thermofisher) by ECHO liquid handler (Labcyte) followed with addition of 27.5 uL assay medium. 5 µL/well compounds in the assay medium were transferred to the cell plate with 0.05% DMSO in the final assay at 0.25 µM. Jurkat-PD-1-SHP cells (DiscoveRx Corporation) were cultured in RPMI1640 medium supplemented with 10% FBS, 250 µg/mL Hygromycin B, 500 µg/mL G418. After the replacement of culture media with assay medium, 5,000 Jurkat-PD-1-SHP cells in 20 µL were dispensed into each well. The assay plate was incubated at 37° C., 5% CO2 for 2 hours before 2.5 uL PathHunter reagent 1 (DiscoveRx Corporation) were added to each well. The assay plate was shaken for 1 min at 350 rpm in the dark followed with addition of 10 uL PathHunter reagent 2 (DiscoveRx Corporation). Chemiluminescent signal was recorded with TopCount reader (Perkin Elmer) after incubation at room temperature for 1 hour. Wells with DMSO were served as the positive controls and wells containing no cells were used as negative controls. IC50 determination was performed by fitting the curve of percentage of control activity versus the log of the compound concentration using the GraphPad Prism 6.0 software.

T1 sequence (Q9NZQ7 19-290): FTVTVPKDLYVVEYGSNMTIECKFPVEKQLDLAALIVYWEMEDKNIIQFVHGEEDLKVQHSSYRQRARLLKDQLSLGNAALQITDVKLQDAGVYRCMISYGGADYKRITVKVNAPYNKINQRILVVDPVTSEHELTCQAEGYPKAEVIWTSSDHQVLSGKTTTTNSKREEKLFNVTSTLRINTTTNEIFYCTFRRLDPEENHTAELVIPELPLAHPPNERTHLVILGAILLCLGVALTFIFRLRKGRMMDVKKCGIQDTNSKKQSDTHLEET

| Structure (SMILES) | IC50 [1] | IC50 [3] | IC50 [4] | EC50 [2] |
| --- | --- | --- | --- | --- |
| Cc1c(Nc2ncnc3cc(CN4CC[C@@H](O)C4)cnc23)cccc1-c1cccc(NC(=O)c2nc3c(n2C)CCN(C2CCC(C)(C(=O)O)CC2)C3)c1Cl (stereo partly shown) [Compound 12] | < 0.1 µM | < 0.01 µM | < 0.01 µM | < 0.1 µM |
| CN1CCc2c(nc(C(=O)Nc3cccc(-c4cccc(NC(=O)c5nc6c(n5C)CCN(CC[C@H]5CC[C@H](C(=O)O)CC5)C6)c4C#N)c3Cl)n2C)C1 [Compound 19, trans-4-(2-(2-((2′-chloro-2-cyano-3′-(1,5-dimethyl-4,5,6,7-tetrahydro-1H-imidazo[4,5-c]pyridine-2-carboxamido)-[1,1′-biphenyl]-3yl)carbamoyl)-1-methyl-1,4,6,7-tetrahydro-5H-imidazo[4,5-c]pyridin-5-yl)ethyl)cyclohexane-1-carboxylic acid] | < 0.1 µM | < 0.01 µM | < 0.01 µM | < 0.1 µM |
| Cc1cc(C(=O)Nc2cccc(-c3cccc(NC(=O)c4ccc(CN5CCCC5)cn4)c3Cl)c2C)ncc1CN1CCCC[C@H]1C(=O)O [Compound 9, (S)-1-((6-((2′-chloro-2-methyl-3′-(5-(pyrnolidin-1-ylmethyl)picolinamido)-[1,1′-biphenyl]-3-yl)carbamoyl)-4-methylpyridin-3-yl)methyl)piperidine-2-carboxylic acid] | – | < 0.01 µM | < 0.01 µM | < 0.1 µM |
| Cc1c(NC(=O)c2nc3c(n2C)CCN(C[C@H]2CC[C@@H](C(=O)O)CC2)C3)cccc1-c1cccc(NC(=O)c2nc3c(n2C)CCN(C)C3)c1Cl [Compound 17, cis-4-((2-((2′-chloro-3′-(1,5-dimethyl-4,5,6,7-tetrahydro-1H-imidazo[4,5-c]pyfidine-2-caiboxamido)-2-methyl-[1,1′-biphenyl]-3-yl)caibamoyl)-1-methyl-1,4,6,7-tetrahydro-5H-imidazo[4,5-c]pyridin-5-yl)methyl)cyclohexane-1-carboxylic acid] | < 0.1 µM | < 0.01 µM | < 0.01 µM | < 0.1 µM |
| Cc1c(-c2nc3c(Cl)cc(CNCCO)cn3n2)cccc1-c1cccc(NC(=O)c2ccc(CNCCO)cn2)c1Cl [Compound 2, N-(2-chloro-3′-(8-chloro-6-((2-hydroxyethylamino)methyl)-[1,2,4]triazolo[1,5-a]pyridin-2-yl)-2′-methylbiphenyl-3-yl)-5-((2-hydroxyethylamino)methyl)picolinamide] | – | < 0.01 µM | < 0.1 µM | < 0.5 µM |
| Cc1c(NC(=O)c2ccc(CN3CCC(C(=O)O)CC3)cn2)cccc1-c1cccc(NC(=O)c2ccc(CN3CC[C@@H](O)C3)cn2)c1Cl [Compound 8, (R)-1-((6-(2′-chloro-3′-(5-((3-hydroxypyrrolidin-1-yl)methyl)picolinamido)-2-methylbiphenyl-3-ylcarbamoyl)pyridin-3-yl)methyl)piperidine-4-carboxylic acid] | – | < 0.01 µM | < 0.1 µM | < 0.1 µM |

Continued, in another order:

| IC50 [1] | IC50 [3] | IC50 [4] | Structure (SMILES) | EC50 [2] |
| --- | --- | --- | --- | --- |
| < 0.1 µM | < 0.01 µM | < 0.01 µM | C[C@@H](O)CN1CCc2c(nc(C(=O)Nc3cccc(-c4cccc(NC(=O)c5nc6c(n5C)CCN(CCC57CCC(C(=O)O)(CC5)C7)C6)c4Cl)c3Cl)n2C)C1 [Compound 29] | < 0.01 µM |
| < 0.5 µM | < 0.01 µM | < 0.01 µM | CCN(C)CC(=O)N1Cc2nc(-c3cccc(-c4cccc(NC(=O)c5nc6c(n5C)CCN(C[C@H]5CC[C@H](C(=O)O)CC5)C6)c4Cl)c3C)sc2C1 [Compound 20, trans-4-((2-(2-chloro-3′-(5-(2-(ethyl(methyl)amino)acetyl)-5,6-dihydro-4H-pyrrolo[3,4-d]thiazol-2-yl)-2′-methylbipheiryl-3-ylcarbamoyl)-1-methyl-6,7-dihydro-1H-imidazo [4,5-c]pyridin-5 (4H)-yl)methyl)cyclohexane-1-carboxylic acid] | < 0.5 µM |
| < 0.1 µM | < 0.01 µM | < 0.01 µM | Cn1c(C(=O)Nc2cccc(-c3cccc(NC(=O)c4nc5c(n4C)CCN(CC46CCC(C(=O)O)(CC4)C6)C5)c3Cl)c2Cl)nc2c1CCN(CCC13CCC(C(=O)O)(CC1)C3)C2 [Compound 31, 4-((2-((3′-(5-(2-(4-carboxybicyclo[2.2.1]heptan-1-yl)ethyl)-1-methyl-4,5,6,7-tetrahydro-1H-imidazo[4,5-c]pyridine-2-carboxamido)-2,2′-dichloro-[1,1′-biphenyl]-3-yl)carbamoyl)-1-methyl-1,4,6,7-tetrahydro-5H-imidazo[4,5-c]pyridin-5-yl)methyl)bicyclo[2.2.1]heptane-1-carboxylic acid] | < 0.1 µM |
| < 0.1 µM | < 0.01 µM | < 0.01 µM | Cc1c(-c2nc3c(s2)CN(C(=O)CN(C)C(C)C)C3)cccc1-c1cccc(NC(=O)c2nc3c(n2C)CCN(CCC2CCC(C(=O)O)CC2)C3)c1Cl (stereo not shown) [Compound 23, 4-(2-(2-(2-chloro-3′-(5-(2-(isopropyl(methyl)amino)acetyl)-5,6-dihydro-4H-pyrrolo[3,4-d]thiazol-2-yl)-2′-methylbiphenyl-3-ylcarbamoyl)-1-methyl-6,7-dihydro-1H-imidazo[4,5-c]pyridin-5(4H)-yl)ethyl)cyclohexane-1-carboxylic acid] | < 0.1 µM |

— patent US20230149409A1, “TREATMENT OF HUMAN PAPILLOMAVIRUS-ASSOCIATED CANCERS BY PD-L1 INHIBITORS” (priority 2021, published 2023)
